Source: US20240197756A1, “METHODS OF TREATMENT WITH NEUROACTIVE STEROIDS” (priority 2021, published 2024)
Entries after “also recorded” stand apart in the source; their conditions may differ.

What was measured:
[1] = Example 3 Part C: tablet single ascending doses, morning fasted vs 8 p.m., plasma pharmacokinetics; assay type: in vivo, human; details: for half-life: Mean (SD); for AUC(0-inf): AUCinf
Method: Patients with severe major depressive disorder (MDD) aged 18 to 65 years were treated with an oral suspension or tablet of Compound 1 to study the effect of food and time of administration on the pharmacokinetics, as well as the safety and tolerability of these formulations.
Part C is a randomized, participant- and Investigator-blinded, Sponsor-unblinded, placebo-controlled, parallel-group design to evaluate the pharmacokinetics and safety of single ascending doses of a Compound 1 citrate tablet. One cohort of 16 participants was planned, with 12 participants receiving Compound 1 and 4 participants receiving placebo. Part C also evaluated administration of a single dose level at 8 p.m., both 2 hours and 4 hours after dinner.
Preliminary pharmacokinetics data from Part A, where 45 mg and 60 mg of oral suspension were administered (Cohort 1), and Part C, where 40 mg (2×20 mg), 60 mg (3×20 mg) and 80 mg (4×20 mg) of the tablet formulation were administered, have been analyzed and are summarized below.
A tablet comprising Compound 1 was administered as single ascending doses of 40 mg, 60 mg and 80 mg under fasted conditions in the morning (FIG. 5). The 60 mg dosage was administered on two additional occasions at 8 p.m., once 4 hours after dinner and once 2 hours after dinner (FIG. 6).

[2] = Safety and tolerability in MDD patients (Part A); assay type: in vivo, human; details: 80 mg once daily for 14 days in MDD patients
Method: In Part A, participants were administered daily doses of Compound 1 (45 mg Cohort and 80 mg Cohort) at 4 p.m. on Day 1 and qHS on all other study days for 7 days inpatient followed by 7 days outpatient (with subsequent Cohorts receiving up to 120 mg qHS). Participants checked into the clinic on Day 1. During this period the following assessments were performed: adverse event assessments, vital signs, physical examinations, blood and urine samples for safety assessments, ECGs, C-SSRS assessments, blood samples for PK, and efficacy assessments (HAM-D, MADRS, HAM-A, CGI [CGI-S and CGI-I], PSQI, and SDQ). Baseline assessments occurred on Day 1 prior to administration of study drug. On Day 8, prior to discharge, participants were supplied with sufficient Compound 1 to complete 7 days of dosing.

[3] = test system: GABAA receptors in the brain; assay: Quantitative EEG (qEEG) alpha- and beta-band power in Phase 1 MAD trial; assay type: in vivo, human
Method: Pharmacodynamic (PD) effects of first dose and steady state Compound 1 concentrations on wake electroencephalograms (EEGs) were studied. Standard 16 channel continuous EEGs were obtained at the following time points: Day-1, Day 1 (1 hour after dosing), and Day 14 (1 hour after dosing).
The effect of Compound 1 on the quantitative EEG (qEEG) was measured in a Phase 1 multiple ascending dose (MAD) trial to understand the pharmacodynamic effect of Compound 1 on GABAA receptor activation. The frequency and amplitude of the detected electrical signals in response to treatment with a brain-active compound provide insights into brain function and brain state (e.g., awake, deep sleep, etc.) or pharmacological response. For instance, changes in power in the beta-band frequency can be used as a pharmacodynamic biomarker of GABAA receptor activation in response to a brain active compound.
EEG was recorded for 5 minutes in quiet eyes open condition using a standard 10-20 EEG electrode placement system at pre-dose and 1, 2, 4, 8 and 24 hours after dosing. Each lead was referenced to the Oz electrode. Artifacts were removed via visual inspections. EEG spectra were computed using Fourier transformation. The alpha-band frequency was set to 8.5-12.5 Hz, the beta-band frequency was set to 12.5 to 30 Hz. The ratio between each post-dose value and the associated pre-dose value for each electrode was used to calculate the fold EEG change in each frequency band so that a ratio of 1 represents no change from baseline. The mean of the central 9 electrodes was used for each subject and timepoint for final analysis.

[4] = test system: extrasynaptic form of GABAA receptors; assay: PAM selectivity for extrasynaptic vs synaptic GABAA receptors
[5] = 30 mg, one hour post-dose on Day 1, healthy volunteers
[6] = 60 mg, one hour post-dose on Day 1, healthy volunteers
[7] = healthy volunteers, days 1 and 14

Which results are given for `COC[C@@]1(O)CC[C@@]2(C)[C@@H](CC[C@@H]3[C@@H]2CC[C@]2(C)[C@@H](C(=O)Cn4ccnc4)CC[C@@H]32)C1` [Compound 1, 3α-Hydroxy-3β-methoxymethyl-21-(1′-imidazolyl)-5α-pregnan-20-one]?
Tmax ([1]; human, in vivo, 40 mg): 1.5 h; half-life ([1]; human, in vivo, 40 mg, 9 a.m. administration (fasted), N = 13): 11.9 h; AUC(0-inf) ([1]; human, in vivo, 40 mg): 1390 ng·h/mL; Cmax ([1]; human, in vivo, 40 mg): 181 ng/mL; Tmax ([1]; human, in vivo, 60 mg): 2.5 h; tmax ([1]; human, in vivo, 60 mg): 2.5 (1.0, 3.0) h; half-life ([1]; human, in vivo, 60 mg, 8 p.m. administration (60 mg), 2 h after dinner, N = 12): 9.6 h; half-life ([1]; human, in vivo, 60 mg, 8 p.m. administration (60 mg), 4 h after dinner, N = 11): 11.4 h; half-life ([1]; human, in vivo, 60 mg, 9 a.m. administration (fasted), N = 12): 11.5 h; AUC(0-inf) ([1]; human, in vivo, 60 mg): 2610 ng·h/mL; Cmax ([1]; human, in vivo, 60 mg): 408 ng/mL; half-life ([1]; human, in vivo, 80 mg, 9 a.m. administration (fasted), N = 12): 11.4 h; AUC(0-inf) ([1]; human, in vivo, 80 mg): 3980 ng·h/mL; Cmax ([1]; human, in vivo, 80 mg): 546 ng/mL; dose proportionality of exposure ([1]; tablet, fasted, between 60 mg and 80 mg): closer to dose-proportional; increase in exposure over a 2-fold increase in dose ([1]; tablet, fasted, from 40 mg to 80 mg): ~3 fold; tolerability [2]: well tolerated with no change in Adverse Event profile; also recorded: well-tolerated; effects on the qEEG alpha and beta power at Day 14 ([3]; 30 mg and 60 mg QD): sustained; average increase in qEEG alpha power compared to baseline [3, 5]: approximately 1.5 fold; average increase in qEEG beta power compared to baseline [3, 5]: ~1.6 fold; increase in qEEG alpha power compared to baseline [3, 6]: 2.6 fold; increase in qEEG beta power compared to baseline [3, 6]: 2.8 fold; increases in beta power ([3]; MAD study, up to 60 mg): up to 2.8 fold; power of the alpha-band frequency (qEEG) [3, 7]: marked increases; also recorded: markedly increase; power of the beta-band frequency (qEEG) [3, 7]: marked increases; also recorded: markedly increase; selectivity as PAM of the extrasynaptic form of GABAA receptors compared to the synaptic form [4]: approximately 10 fold
